Assay [1] concerns SARS-COV-2-S-driven entry. In kind it is cell-based, SARS-CoV-2 spike pseudovirus in A549 cells.
A further assay concerns VSV-G-driven entry. In kind it is cell-based, VSV-G pseudovirus.

The structures appear in SMILES notation.

The text below walks through data of patent US11255855B1, “COVID-19 spike-ACE2 binding assay for drug and antibody screening” (priority 2020, dated 2022).

Turning to `CN(C)C(=O)COC(=O)Cc1ccc(OC(=O)c2ccc(NC(=N)N)cc2)cc1` [camostat, Camostat Mesilate], the “inhibition of SARS-COV-2-S-driven entry (in words)” value in assay [1] is recorded as “No inhibition”.

With `COc1cc(C(=O)NS(=O)(=O)c2ccccc2C)ccc1Cc1cn(C)c2ccc(NC(=O)OC3CCCC3)cc12` [Zafirlukast], in assay [1], the “blocking effect on pseudovirus entry into host A549 cells” value is listed as “blocking effect” and the “inhibition of SARS-COV-2-S-driven entry (in words)” value was “inhibited”. Further, in the assay on VSV-G-driven entry, the “inhibition of VSV-G-driven entry (in words)” value is recorded as “not VSV-G-driven entry”.

Take `CCN1CCN(C(=O)N[C@@H](C(=O)N[C@@H]2C(=O)N3C(C(=O)O)=C(CSc4nnnn4C)CS[C@H]23)c2ccc(O)cc2)C(=O)C1=O` [cefoperazone]: the “inhibition of SARS-COV-2-S-driven entry (in words)” value in assay [1] is on record as “No inhibition”.
